Results published in patent publication US12435062B2, “Amide compounds and uses thereof” (HUTCHISON MEDIPHARMA LIMITED, priority 2020, dated 2025).

Experiments:
[1] = target: CSF1R phosphorylation in THP-1 cells (Homo sapiens (Human), UniProt P07333); experiment: Detection of CSF1R phosphorylation activity at cell level (THP-1, M-CSF stimulated, ELISA); format: cell-based; settings: p-CSF1R ELISA, compound 60 min, 300 ng/mL M-CSF 1 min
Description: Detection of CSF1R Phosphorylation Activity at Cell Level
THP-1 (ATCC), human acute monocytic leukemia cells. The cells were cultured in an RPMI 1640 medium containing 10% FBS.
(§1) 2. Reagents and instruments
• Human phosphorylation-CSF1R ELISA kit: R&D, #DYC3268-2; • RPMI 1640 culture solution: GIBCO, 910491; • Human M-CSF recombinant cytokine: R&D, 9216-MC-500; • Cell lysis buffer: Cell Signal, 99803S; • 1×PBS buffer (1 L): 8.0 g of NaCl, 0.2 g of KCl, 3.58 g of Na2HPO4-12H2O, 0.24 g of KH2PO4 were dissolved in 1 L of dd H2O, and the pH was adjusted to 7.4; • Blocking solution: PBS buffer containing 1% BSA; • PBST washing liquid: PBS buffer containing 0.05% Tween-20; • Chromogenic substrate: R&D, #DY999; • 2N H2SO4; • Microwell plate reader: Labsystems Multiskan K3: Thermo; Envision: Perkin Elmer; • ELISA plate: Corning, #9018; • Cell culture plate: Facol, #353027. 3. Treatment of cells and preparation of lysis buffer
THP-1 cells were resuspended in RPMI-1640 culture solution containing 2% FBS, and the culture was added to a 96-well plate at a density of 5×10^4/well, 50 μL/well, and cultured in a cell incubator at 5% CO2 and 37° C. overnight; The test compound was diluted with a serum-free RPMI-1640 medium to 3, 1.1, 0.37, 0.12, 0.04, 0.014, 0.005 and 0.002 μM, and the concentration of DMSO was 5%. 5 μL of the diluted compound was added to the 50 μL cell culture system, the culture was cultured in a 5% CO2, 37° C. cell incubator for 60 min, 300 ng/mL of M-CSF was added to the cells, and the mixture was stimulated in the 37° C. cell incubator for 1 min, added 50 μL of cell lysis buffer, and stored in a refrigerator at −80° C.
100 μL/well of the p-CSF1R capture antibody diluted to 0.8 μg/mL with PBS was added to the ELISA plate, and the plate was coated on a shaker at room temperature overnight. The culture was washed with PBST, and then added blocking solution and incubated at room temperature for 2 h. The culture was washed with PBST, added 90 μL of cell lysis buffer, and incubated on a shaker at 25° C. for 2 h. The plate was washed with PBST three times, added 100 μL of anti-p-tyrosine-HRP detection antibody diluted with 0.1% PBS-BSA diluent, and incubated on a shaker at 25° C. for 2 h. The plate was washed with PBST washing liquid, added 100 μL of chromogenic substrate and incubated at room temperature for 10-20 min. The reaction was stopped by adding 50 μL of 2N H2SO4. The optical density signal (450/570 nm) of each well was detected in Labsystems Multiskan K3 or Envision.
wherein • Drug-treated well read-out: indicating the optical density signal of a cell well with the test compound treatment. • Background read-out: indicating the optical density signal of a well without cells but with cell lysis buffer. • Cell well read-out: indicating the optical density signal of a cell well not treated with the compound. 6. Calculation of IC50: obtained by using XL-Fit 5.3 software. 7. Test results

Ba/F3^BCR-FMS-11 cells = experiment: Cell proliferation experiment (Ba/F3^BCR-FMS-11, cckit-8); format: cell-based, mouse; settings: Ba/F3^BCR-FMS-11 cell proliferation
Description: Cell Proliferation Experiment
Ba/F3^BCR-FMS-11, mouse primary B lymphocytes stably expressing the BCR-FMS fusion gene. The cells were cultured in an RPMI 1640 medium containing 10% FBS.
as §1
• cckit-8 kit: Dojindo, 9 CK04; • Envision: Perkin Elmer; • Cell culture plate: Facol, 9353027. 3. Experimental steps
The BCR-FMS fusion gene was transfected into Ba/F3 cells, and the cell line Ba/F3^BCR-FMS-11 that stably expresses BCR-FMS and grows depending on CSF-1R was screened. Ba/F3^BCR-FMS-11 cell proliferation experiments is completed by using the Cell Counting kit cckit-8 in a 96-well plate. In a 96-well plate, 5000/well of Ba/F3^BCR-FMS-11 cells were inoculated at 100 μL/well. […] 10 μL of the compound dilutions with the above 8 concentrations were added to the culture cell wells. The culture was incubated in a 37° C. and 5% CO2 cell incubator for 72 hours. 10 μL of Cell Counting kit cckit-8 detection reagent was added to each well, and incubated at 37° C. and 5% CO2 in a cell incubator for another 1 h. The optical density absorption value at 450 nm of each well was detected by using Perkin Elmer Envision instrument.
wherein • Drug-treated well read-out: indicating the optical density signal of a cell well with the test compound treatment. • Cell well read-out: indicating the optical density signal of a cell well not treated with the test compound (only 0.5% DMSO). • Background read-out: indicating the optical density signal of a well with the cell medium. 5. Calculation of IC50: obtained by using XL-Fit 5.3 software. 6. Test results

[2] = target: Recombinant human CSF1R kinase (Homo sapiens (Human), UniProt P07333); format: biochemical; settings: Z-LYTE Tyr 1 peptide substrate
Sequence of Recombinant human CSF1R kinase (P07333 20-972): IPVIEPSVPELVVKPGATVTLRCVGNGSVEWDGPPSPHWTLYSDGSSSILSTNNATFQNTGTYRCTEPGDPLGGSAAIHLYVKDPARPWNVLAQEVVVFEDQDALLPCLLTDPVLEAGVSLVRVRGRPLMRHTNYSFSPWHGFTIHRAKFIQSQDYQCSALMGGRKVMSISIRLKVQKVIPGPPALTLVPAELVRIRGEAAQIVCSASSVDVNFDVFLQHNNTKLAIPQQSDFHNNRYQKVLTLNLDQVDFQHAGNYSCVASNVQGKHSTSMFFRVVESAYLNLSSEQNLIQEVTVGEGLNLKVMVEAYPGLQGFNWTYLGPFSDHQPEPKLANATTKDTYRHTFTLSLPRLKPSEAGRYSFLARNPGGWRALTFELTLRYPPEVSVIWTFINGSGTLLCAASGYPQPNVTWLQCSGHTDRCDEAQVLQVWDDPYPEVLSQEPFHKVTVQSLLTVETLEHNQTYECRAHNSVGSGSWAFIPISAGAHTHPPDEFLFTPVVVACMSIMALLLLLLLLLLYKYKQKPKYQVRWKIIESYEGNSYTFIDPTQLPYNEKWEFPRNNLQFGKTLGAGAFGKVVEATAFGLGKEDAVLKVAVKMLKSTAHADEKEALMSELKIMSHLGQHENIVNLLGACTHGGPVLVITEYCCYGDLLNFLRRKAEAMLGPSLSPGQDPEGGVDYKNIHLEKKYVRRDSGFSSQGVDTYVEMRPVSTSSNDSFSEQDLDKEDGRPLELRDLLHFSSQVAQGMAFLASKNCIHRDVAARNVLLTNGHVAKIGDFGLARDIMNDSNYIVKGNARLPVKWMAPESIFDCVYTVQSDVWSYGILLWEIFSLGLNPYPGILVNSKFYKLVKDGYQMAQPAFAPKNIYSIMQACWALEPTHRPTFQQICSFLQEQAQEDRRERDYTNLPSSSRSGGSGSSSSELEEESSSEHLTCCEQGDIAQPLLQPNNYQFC
Description: Measurement of CSF1R Kinase Activity at Molecular Level
1. Reagents and materials:
• Z-LYTE™ Tyr 1 peptide substrate: Invitrogen, PV3190; • 5× kinase buffer: Invitrogen, PV3189; • 10 mM ATP: Invitrogen, PV3227; • Development reagent B: Invitrogen, PV3295; • Development buffer: Invitrogen, P3127; • Stopping solution: Invitrogen, P3094; • Recombinant human CSF1R kinase: Invitrogen, PR4598A; • 384 well plate, black: Corning, 3575; Envision: Perkin Elmer. 2. Preparation of reaction solutions
1) 1.33× kinase buffer: 5× kinase buffer was diluted to a 1.33× kinase buffer with ddH2O.
2) Dilution of a 4× test compound: The test compound was diluted in gradient to 4-fold the reaction concentration and the concentration of DMSO was kept at 8%. The final concentration of the compound in reaction was: 1, 0.33, 0.11, 0.037, 0.012, 0.004, 0.0014, 0.00046 μM, and the final concentration of DMSO was 2%.
3) A mixture of kinase/peptide substrate: In 1.33× kinase buffer, the kinase and Z-LYTE™ Tyr 1 peptide substrate were diluted to 0.12 μg/mL and 4 μM, respectively, to prepare a mixture of kinase/peptide substrate. The mixture was mixed gently with a pipette.
4) A phosphorylated peptide substrate solution (PP solution): 0.4 μL of Z-LYTE™ Tyr1 phosphorylated peptide substrate was added to 99.6 μL of 1.33× kinase buffer.
5) ATP solution: 10 mM of ATP was diluted to 760 μM with 1.33× kinase buffer to prepare ATP solution.
6) Development solution: Development reagent B was diluted with Development buffer at a ratio of 1:200.
1) Kinase reaction (10 μL system)
2.5 μL of 4× test compound was added to each reaction well of the 384 plate, and the corresponding volume of 8% DMSO was added to the control well. The plate was placed on ice. 5 μL of a mixture of kinase/peptide substrate, 2.5 μL of kinase buffer and ATP solution were successively added to each well. Three control groups were set up: Group C1 contains only kinase buffer, group C2 contains the mixture of kinase/peptide substrate, kinase buffer and ATP, and group C3 contains 5 μL of PP solution. After adding the reaction components, the 384-well plate was sealed and incubated at 25-30° C. for 1 h in dark.
5 μL of Development solution was added to each well, sealed and incubated at 25-30° C. for another 1 h in dark.
3) Reaction stopping and plate reading
5 μL of stopping solution was added to each well. The Coumarin value (excitation at 400 nm, emission at 445 nm) and Fluorescein value (excitation at 400 nm, emission at 520 nm) were measured, respectively.
ER (emission ratio): Coumarin emission read-out (445 nm)/Fluorescein emission read-out (520 nm); • C3 445 nm: 100% phosphorylated Coumarin emission read-out; • C3 520 nm: 100% phosphorylated Fluorescein emission read-out; • C1 445 nm: 0% phosphorylated Coumarin emission read-out; • C1 520 nm: 0% phosphorylated Fluorescein emission read-out. Inhibition rate % (IR)=[1−% phosphorylation ratetest sample/100% phosphorylation ratecontrol]×100%
% phosphorylation ratetest sample: phosphorylation rate of the test compound; • 100% phosphorylation ratecontrol: phosphorylation rate of C3 control group.
5. IC50 values: calculated by using software XL-Fit™ (version 5.3) supplied by ID Business Solutions (Guildford, UK), which is an additional software to Microsoft Excel.

Sequence of CSF1R phosphorylation in THP-1 cells (P07333 20-972): as above

SMILES | IC50 [1] | IC50 (Ba/F3^BCR-FMS-11 cells; Mus musculus, 72 h) | IC50 [2] | IC50 (Ba/F3^BCR-FMS-11 cells; 72 hours)
Cn1cc(-c2cc(Oc3ccc(NC(=O)c4ccc[nH]c4=O)nc3)ccn2)cn1 [Compound 9, N-(5-((2-(1-methyl-1H-pyrazol-4-yl)pyridin-4-yl)oxy)pyridin-2-yl)-2-oxo-1,2-dihydropyridine-3-carboxamide] | 105 nM | 107 nM | 12 nM | –
Cn1cc(-c2cc(Oc3ccc(NC(=O)c4cnc5n(c4=O)CCC5)nc3)ccn2)cn1 [Compound 11] | 6 nM | 6 nM | 5 nM | –
CC(C)n1cccc(C(=O)Nc2ccc(Oc3ccnc(-c4ncn(C)n4)c3)cn2)c1=O [Compound 15] | 215 nM | – | 34 nM | 493 nM
Cc1cnc(Nc2cc(Oc3ccc(NC(=O)c4cnc(C)n(C)c4=O)nc3)ccn2)s1 [Compound 16] | 20 nM | 45 nM | 88 nM | –
COc1cc(Oc2ccnc(-c3cnn(C)c3)c2)ccc1NC(=O)c1cccn(C(C)C)c1=O [Compound 18] | 60 nM | 57 nM | 13 nM | –
CC(C)n1cccc(C(=O)Nc2ccc(Oc3ccnc(-c4cnn(C)c4)c3)cc2F)c1=O [Compound 20] | 109 nM | 44 nM | 8 nM | –
Cn1cc(-c2cc(Oc3ccc(NC(=O)c4ccc5n(c4=O)CCC5)nc3)ccn2)cn1 [Compound 27] | 18 nM | 8 nM | 8 nM | –
Cc1cn(-c2cc(Oc3ccc(NC(=O)c4cnc(C)n(C)c4=O)nc3)ccn2)cn1 [Compound 32] | 15 nM | 99 nM | 59 nM | –
Cc1ncc(C(=O)Nc2ccc(Oc3ccnc(-c4cccnc4)c3)cn2)c(=O)n1C [Compound 33] | 15 nM | 58 nM | 62 nM | –
Cc1ncc(C(=O)Nc2ccc(Oc3ccnc(-c4ccccn4)c3)cn2)c(=O)n1C [Compound 34] | 24 nM | 125 nM | 79 nM | –
Cc1cccc(Nc2cc(Oc3ccc(NC(=O)c4cnc(C)n(C)c4=O)nc3)ccn2)n1 [Compound 36] | 8 nM | – | 28 nM | 23 nM
Cc1ncc(C(=O)Nc2ccc(Oc3ccnc(-c4ccncc4)c3)cn2)c(=O)n1C [Compound 41] | 19 nM | 52 nM | 27 nM | –
Cc1ncc(C(=O)Nc2ccc(Oc3ccnc(Nc4ccn(C)n4)c3)cn2)c(=O)n1C [Compound 42] | 6 nM | 6 nM | 5 nM | –
Cc1ncc(C(=O)Nc2ccc(Oc3ccnc(Nc4ccnn4C)c3)cn2)c(=O)n1C [Compound 43] | 6 nM | 5 nM | 6 nM | –
Cn1ccc(Nc2cc(Oc3ccc(NC(=O)c4cnc5n(c4=O)CCC5)nc3)ccn2)n1 [Compound 44] | 3 nM | 6 nM | 7 nM | –
Cn1cc(Nc2cc(Oc3ccc(NC(=O)c4cnc5n(c4=O)CCC5)nc3)ccn2)cn1 [Compound 45] | 3 nM | 9 nM | 9 nM | –
Cn1ccc(Nc2cc(Oc3ccc(NC(=O)c4cccn(C)c4=O)nc3)ccn2)n1 [Compound 46] | 9 nM | 20 nM | 12 nM | –
Cn1nccc1Nc1cc(Oc2ccc(NC(=O)c3cnc4n(c3=O)CCC4)nc2)ccn1 [Compound 47] | 3 nM | 6 nM | 5 nM | –
Cn1nccc1Nc1cc(Oc2ccc(NC(=O)c3cccn(C)c3=O)nc2)ccn1 [Compound 48] | 5 nM | 5 nM | 5 nM | –
Cc1ncc(C(=O)Nc2ccc(Oc3ccnc(-c4ccccc4)c3)cn2)c(=O)n1C [Compound 51] | 67 nM | 97 nM | 56 nM | –
CCn1cccc(C(=O)Nc2ccc(Oc3ccnc(-c4cnn(C)c4)c3)cn2)c1=O [Compound 55] | 7 nM | 5 nM | 3 nM | –

Now from value to molecule, other results behind:

IC50 [1] | IC50 (Ba/F3^BCR-FMS-11 cells; Mus musculus, 72 h) | IC50 [2] | SMILES | IC50 (Ba/F3^BCR-FMS-11 cells; 72 hours)
4 nM | 7 nM | 4 nM | Cc1ncc(C(=O)Nc2ccc(Oc3ccnc(-c4cnn(C)c4)c3)cn2)c(=O)n1C [Compound 8, 1,2-dimethyl-N-(5-((2-(1-methyl-1H-pyrazol-4-yl)pyridin-4-yl)oxy)pyridin-2-yl)-6-oxo-1,6-dihydropyrimidine-5-carboxamide] | –
62 nM | 88 nM | 15 nM | Cn1cc(-c2cc(Oc3ccc(NC(=O)c4cncn(C)c4=O)nc3)ccn2)cn1 [Compound 10] | –
143 nM | 66 nM | 9 nM | Cc1c(F)cc(C(=O)Nc2ccc(Oc3ccnc(-c4cnn(C)c4)c3)cn2)c(=O)n1C [Compound 12] | –
42 nM | 231 nM | 91 nM | Cc1ncn(C)c(=O)c1C(=O)Nc1ccc(Oc2ccnc(-c3cnn(C)c3)c2)cn1 [Compound 13] | –
43 nM | 73 nM | 28 nM | Cn1cnc(-c2cc(Oc3cnc(NC(=O)c4cccn(C)c4=O)c(F)c3)ccn2)c1 [Compound 21] | –
10 nM | 14 nM | 11 nM | Cn1cc(-c2cc(Oc3cnc(NC(=O)c4cccn(C)c4=O)c(F)c3)ccn2)cn1 [Compound 22] | –
38 nM | 45 nM | 22 nM | Cc1ncc(C(=O)Nc2ncc(Oc3ccnc(-c4cnn(C)c4)c3)cc2F)c(=O)n1C [Compound 23] | –
59 nM | 37 nM | 30 nM | Cc1cc(Oc2ccnc(-c3cnn(C)c3)c2)cnc1NC(=O)c1cccn(C(C)C)c1=O [Compound 24] | –
38 nM | 66 nM | 16 nM | CC(C)n1cccc(C(=O)Nc2ncc(Oc3ccnc(-c4cnn(C)c4)c3)cc2C#N)c1=O [Compound 25] | –
14 nM | 24 nM | 35 nM | Cc1ncc(C(=O)Nc2ccc(Oc3ccnc(-c4cn(C)cn4)c3)cn2)c(=O)n1C [Compound 30] | –
7 nM | 17 nM | 12 nM | CCn1cc(-c2cc(Oc3ccc(NC(=O)c4cnc(C)n(C)c4=O)nc3)ccn2)cn1 [Compound 38] | –
12 nM | 63 nM | 33 nM | Cc1ncc(C(=O)Nc2ccc(Oc3ccnc(-c4cnn(C(C)C)c4)c3)cn2)c(=O)n1C [Compound 39] | –
14 nM | 24 nM | 23 nM | Cc1ncc(C(=O)Nc2ccc(Oc3ccnc(-c4cnn(C(F)F)c4)c3)cn2)c(=O)n1C [Compound 49] | –
54 nM | 112 nM | 78 nM | Cc1ncc(C(=O)Nc2ccc(Oc3ccnc(-c4ccc(F)cc4)c3)cn2)c(=O)n1C [Compound 50] | –
